Assay results reported in ChEMBL document CHEMBL3507680, “University of Dundee, Gates Library screen for HepG2 cell viability”.

Assay: Human HepG2 cell viability assay in 384 well format
Type: toxicity, cell-based
Parameters: dose 125 nL, time 70.5 hour; concentration not given beside the values
Conditions: HepG2 cells, read-out: Inhibition

SMILES | cytotoxicity at 70.5 h [%]
Cc1noc(C)c1CN1CCN(Cc2nc(C3CC3)no2)CC1 | -12.8
Cc1c(C(=O)NCC2CCN(Cc3ccco3)C2)[nH]c2ccccc12 (stereo not drawn) | -5.18
CC1(C)CN(CCC(=O)NCc2cccc(Cl)c2)CC[C@]1(C)O | -9.57
COCC(=O)N1CCc2nc(C(=O)Nc3cccnc3)sc2CC1 | -2.18
CCS(=O)(=O)N1Cc2ccccc2CC1C(=O)OCc1cc(C)no1 (stereo not drawn) | -7.63
COc1cccc2c1OCC(C(=O)N1CCN(S(=O)(=O)N(C)C)CC1)C2 (stereo not drawn) | -2.76
COc1ccc(F)cc1S(=O)(=O)N1CCC(OC)CC1 | -2.88
Cc1ccc(C(=O)N2CC[C@@]3(O)CCCC[C@H]3C2)cc1 | 7.79
Cc1nn(C)c(N(C)C)c1CNCCNS(C)(=O)=O | -7.58
CC(NC(=O)CCn1c(=O)oc2ccccc21)c1ccccn1 (stereo not drawn) | -2.59
Cc1ccc(C(=O)N2CCC3(CC2)CC(c2cnn(C)c2)CO3)cn1 (stereo not drawn) | -10.6
Cc1nccn1CCC1CCN(c2ncccn2)CC1 | -6.44
CCC(C(=O)NCc1ccn(-c2ccc(F)cc2)n1)N1CCCC1=O (stereo not drawn) | 5.43
CCn1cc(CN2CCCN(C(=O)c3ccn(C)c(=O)c3)CC2)cn1 | 20.6
CCOCCN1CCN(Cc2nnc(-c3ccco3)o2)CC1 | -5.68
Cc1cc(C)n(CC2CN(CCOc3cccc(F)c3)CCO2)n1 (stereo not drawn) | 1.51
CCOCCCNS(=O)(=O)c1ccc2c(c1)NC(=O)C(C)O2 (stereo not drawn) | 12.7
N#CCCCn1cnc2c(F)cc(Br)cc2c1=O | -5.69
CC1(C)[C@H]2CC=C(CN3CCCn4nc(C(=O)NCCO)cc4C3)[C@@H]1C2 | -4.77
Cc1nn(C)cc1CN1CCc2c(nc(-c3ccccn3)[nH]c2=O)C1 | -5.77
Cc1ccccc1[C@@H]1CN(Cc2nc3ncccn3n2)C[C@H]1C(=O)O | 3.89
O=C(COc1coc(CN2CCCCC2)cc1=O)c1ccc(Cl)cc1 | -23.2
Cc1ccccc1-n1c(O)cc(C)c(C#N)c1=O | -1.83

SMILES | cytotoxicity at 70.5 h [%]
CCn1nc(C)c(C(C)NC(=O)c2cnc(N(C)C)nc2C)c1C (stereo not drawn) | 1.08
O=C([C@H]1C[C@H]2OCC[C@H]2N(Cc2ccoc2)C1)N1CCCCO1 | -6.32
CCCn1cc(NC(=O)c2cccc3cccnc23)ccc1=O | -17.8
COCCN1CCC(CN(C)c2nc3c(s2)c(C)nn3C)C1 (stereo not drawn) | -3.25
CC(C)(C)CC(=O)N1CC[C@@H]2[C@H](CC1)N(S(C)(=O)=O)CCS2(=O)=O | -5.98
Cc1ccc(S(=O)(=O)N2CCOc3ccccc32)cc1C(=O)O | -1.56
Cc1cc(C)c(CNC(=O)NCc2nnc3n2CCCC3)c(=O)[nH]1 | -13.4
CC(C)c1noc(-c2ccnc(-n3cnc(C(=O)O)c3)c2)n1 | -14.7
Cc1cccc(C(=O)N2C[C@@H]3[C@H](CC(=O)NC(C)C)[C@@H]3C2)n1 | -9.84
CCCn1nnnc1COc1cc(OC)ccc1C(=O)OC | -7.14
NC(=O)C1CCN(c2nc3nccc(-c4ccccc4)c3c(=O)[nH]2)CC1 | -13.2
CCN(C(=O)Cc1ccc(NCc2ncc[nH]2)cc1)c1ccccc1 | -5.61
Cn1nnc2c1CCN(CC1CC1)C2COCC1CC1 (stereo not drawn) | -12.8
O=C(c1cc(COc2ccc3c(c2)OCO3)[nH]n1)N1CCOCC1 | 9.33
Cc1nn(C)c2c(=O)n(CC(=O)Nc3cc(Cl)cc(Cl)c3)nnc12 | -0.624
CC(C)NC(=O)N1C[C@H]2C[C@H](C(=O)NCc3ccccc3)[C@@H](C1)O2 | -5.16
O=C(N[C@H]1CN(c2ccncc2)C[C@@H]1C1CC1)C1CCOCC1 | -3.12
CCc1noc(CS(=O)(=O)CC(=O)N2c3ccccc3CC2C)n1 (stereo not drawn) | -12.6
CC(C)Cc1cc(CNc2nc(-c3cccnc3)nc3c2CNC3)no1 | -15.7
O=C([C@@H]1Cc2[nH]cnc2CN1Cc1cc2ccccc2o1)N1CCCC1 | 8.38
Cc1nc(C2NC3(CCCC3)C(=O)N2CC2CC2)cs1 (stereo not drawn) | -5.61
Cc1ccc2ncn(C(C)Cn3cccn3)c(=O)c2c1 (stereo not drawn) | -5.52
COc1cccc(-c2cc(NCCO)nc3[nH]ccc23)n1 | -10.9

SMILES | cytotoxicity at 70.5 h [%]
CCS(=O)(=O)N1CCC(Nc2c(Cl)cccc2C#N)CC1 | -90.6
COC(=O)NCC(=O)N1CCCCC1c1nc2cc(F)ccc2[nH]1 (stereo not drawn) | 1.25
CC(NCc1ccc(-c2ccc(F)cc2)o1)c1nnc2n1CCC2 (stereo not drawn) | -9.83
Clc1cccc(-n2cnnn2)c1N1CCCCC1 | 29.1
Cc1cccnc1[C@]1(O)CC[C@H]2CN(Cc3cccc(Cl)c3Cl)C[C@H]21 | -3.29
Cc1cnn(CCC(=O)N(CC2CN(C)CCO2)c2nccs2)c1 (stereo not drawn) | -12.8
Cc1cnn(CC2CCCCN2C(=O)c2ccc3c(c2)COC3)c1 (stereo not drawn) | 4.39
CC(NC(=O)CCNC(=O)c1ccoc1)c1ccccc1 (stereo not drawn) | -7.29
Cc1nc(C)n(CC2CN(CCc3ccncc3)CCO2)n1 (stereo not drawn) | -0.163
CCN(CC)C1CCN(C(=O)c2cc(-n3cccn3)ccc2Cl)CC1 | -0.746
CCC(Nc1nnnn1-c1ccccc1)C(=O)NC1CCSCC1 (stereo not drawn) | -9.32
COCc1nc(C2CC2)nn1-c1ccccc1Cl | -2.98
CC(NC(=O)COc1nc(C(C)(C)C)no1)c1ccco1 (stereo not drawn) | -6.24
CCOCC1CC2(CCN(C(=O)C3CC=CC3)CC2)CO1 (stereo not drawn) | -8.99
O=C(C1CCCC1)N1CCN(Cc2nc(-c3ccco3)no2)CC1 | -9.97
c1ccc(-c2cc(CN3C[C@@H]4CC[C@H](C3)N(CC3CCC3)C4)on2)cc1 | -11.6
NC(=O)C1CCN(Cc2cc3c(cc2Br)OCCO3)C1 (stereo not drawn) | -1.46
CCc1nccn1-c1cccc(C2CCCN2)n1 (stereo not drawn) | -1.73
O=C(NC1CCCN(c2ncccn2)C1)c1ccoc1 (stereo not drawn) | -1.17
Cc1cccc(C(=O)N2CCC(c3n[nH]c(C4CC4)n3)CC2)c1 | 20.7
c1csc(-c2noc(CN3CCCC3Cn3cccn3)n2)c1 (stereo not drawn) | -2.35
Cn1nc2c(cc1=O)CN(CC(=O)Nc1ccc(Cl)cn1)CC2 | -3.49
CCCc1nc(C(C)(C)NC(=O)C2CC(=O)N(CC3CC3)C2)no1 (stereo not drawn) | -6.06

SMILES | cytotoxicity at 70.5 h [%]
Cc1nsc(C(=O)NCCc2ccc(S(N)(=O)=O)cc2)n1 | -5.58
O=C(O)c1cc(S(=O)(=O)Nc2cccc3c2OCCO3)c(Cl)cc1F | -124
Cc1c(F)cc(C(=O)O)cc1S(=O)(=O)Nc1ccc2c(c1)OCCO2 | -2.52
O=C(NCC(F)(F)F)NC1CCCc2c1cnn2CCO (stereo not drawn) | -8.96
CC(C)c1nc(O)c2nnn(C[C@@H]3CCCN(Cc4cccs4)C3)c2n1 | 1.47
CS(=O)(=O)c1ccc(CN2CCCCC2c2ccc(F)cc2)cc1 (stereo not drawn) | 17.4
O=S1(=O)CCC(n2cc(CNc3ccccc3Br)cn2)C1 (stereo not drawn) | 31.4
Cc1ccc(CN2CCN(C)c3ncccc3C2)o1 | -6.49
CC(C)(C)C(=O)NCCC(=O)NC(C)(C)c1ccc2c(c1)OCO2 | -3.54
O=C(NCC1CCCN1Cc1ccccc1)NCC1(O)CCC1 (stereo not drawn) | 31.1
COCCn1ccc2ccc(C(=O)N3CCN(C(C)=O)CC3)cc21 | -13.7
Cc1nnc(NCc2ccccc2F)c(C#N)c1C | -5.23
CCNC(=O)C1CCN(Cn2nc(-c3ccccc3)oc2=O)CC1 | -1.22
c1csc(CNc2ccccc2Cn2cncn2)c1 | 7.58
O=C(C1CC1)N1CCC(Oc2ccccc2Cl)CC1 | 20.6
CS(=O)(=O)CCC(=O)Nc1cc(Cl)c(Cl)cn1 | 26.6
COCCNC(=O)c1sc(Nc2ccc(Cl)cn2)nc1C | -13.2
CCC(C)c1cc(C(=O)N(CC(=O)NC)c2cccc(F)c2)on1 (stereo not drawn) | 20.8
CCc1n[nH]c(C2CN(C(=O)c3cc(C(N)=O)cs3)CCO2)n1 (stereo not drawn) | -12.1
O=C(NCC1CCOCC1)c1cc(-c2ccncc2)c2cnccc2n1 | -2.01
Cc1c(C(=O)NCCC(=O)N2CCCC2)oc2c(F)cccc12 | -6.53
N#Cc1nccnc1N1CCC(c2nc(C(F)(F)F)c[nH]2)CC1 | -9.24
CC(C)n1cnnc1CNC(=O)c1cnc2ccccc2n1 | -3.77

SMILES | cytotoxicity at 70.5 h [%]
CCS(=O)(=O)N1CCC2(CC1)CN(CC1CCOC1)c1ccccc12 (stereo not drawn) | 26
CCc1ccsc1C(=O)N(C)CCc1ccncc1 | -1.38
CS(=O)(=O)Cc1ccc(C(=O)NC2CCc3nccn3C2)o1 (stereo not drawn) | -6.33
COCCn1ccc2c(NC(=O)c3n[nH]c4c3CCC4)cccc21 | 1.93
Cc1nc(CN2CCCN(C(=O)c3c(C)oc(C)c3C)CC2)cs1 | -10
COc1cccc(C(c2c(C)n[nH]c2O)c2c(C)n[nH]c2O)c1OC | -11.7
COc1ccc(C(=O)N2CCCCC2c2nc(C)cs2)nn1 (stereo not drawn) | 23.8
Cc1cccc(CN2CCCC23CCNC3)n1 (stereo not drawn) | 24.8
COc1ncccc1CNC(=O)c1c[nH]c(=O)c(Br)c1 | -4.91
CS(=O)(=O)N1CC(c2nc(N)ncc2-c2ccc(F)cc2)C1 | -2.15
Cc1cnc(C2(C)CCN(Cc3cscn3)CC2)s1 | -6.19
C[C@@H](NCc1cccc(Cl)c1)c1onc(-c2ccc(F)cc2)c1C(=O)O | -2.58
Cc1ncsc1CCC(=O)NCc1cc2n(n1)CCNC2 | -8.17
Cc1cccc(NC(=O)[C@@H]2CCCN2Cc2nc(C)c(C)o2)n1 | -9.4
CNc1ncc(CN(C)C(=O)CCc2[nH]nc3c2CCCC3)cn1 | -11.5
Cc1nn(CCO)cc1CN1CCCC1c1nc2c(C)cccc2[nH]1 (stereo not drawn) | -2.76
CC(C)(C)c1cc(C(=O)N2CCOC(c3cnccn3)C2)[nH]n1 (stereo not drawn) | 0.63
Cc1n[nH]c(C)c1C1COCCN1C(=O)Cc1cccc(F)c1 (stereo not drawn) | -4.4
CNC(=O)Cn1nnc(-c2cc3ccccc3o2)n1 | -5.34
O=C(C(c1ccccc1)N1CCc2cncnc2C1)N1CCCCC1 (stereo not drawn) | 7.48
COc1ccc(CN2CC[C@H](NC(C)=O)[C@@H](O)CC2)c(F)c1 | -5.93
